Where a name gives a salt, the structure may show the parent alone.
Experiments:
[1] = NO release (NOx formation) in rat plasma; assay type: in vitro ADME; conditions: 250 μM, up to 240 min
Procedure: Rat blood was freshly collected with Na-heparin as anticoagulant from male Sprague Dawley rats weighing about 300–330 g. Blood was immediately centrifuged to obtain plasma. Plasma was incubated for up to 240 min at 37° C. in presence of either compound of Ex. 3 (250 μM) or of NO-ENA (250 μM). At fixed times points samples were withdrawn from the incubation and NOx (nitrites+nitrates), the oxidative products of NO, were determined by GPC (gas phase chemiluminescence).

[2] = tested on: isolated rabbit thoracic aorta preparations; assay: Study on vascular tone: vasorelaxation of noradrenaline-precontracted aortic rings; assay type: cell-based; conditions: for IC50: Oryctolagus cuniculus, concentration giving 50% reversal of NA (1 μM) contraction, rabbit thoracic aorta rings with functional endothelium, read-out: IC50 (μM) ± sem
Procedure: The ability of ACE inhibitor nitroderivatives to induce vasorelaxation in comparison to native ACE inhibitors, was tested in vitro in isolated rabbit thoracic aorta preparations (Wanstall J. C. et al., Br. J. Pharmacol., 134:463–472, 2001). Male New Zealand rabbits were anaesthetized with thiopental-Na (50 mg/kg, iv), sacrificed by exsanguinations and then the thorax was opened and the aorta dissected. Single ring preparations (4 mm in length) of thoracic aorta were set up in physiological salt solution (PSS) at 37° C. in small organ chambers (5 ml). The composition of PSS was (mM): NaCl 130, NaHCO3 14.9, KH2PO4 1.2, MgSO4 1.2, HEPES 10, CaCl2, […] (95% O2/5% CO2; pH 7.4). Each ring was mounted under 2 g passive tension in 5 ml organ bath. Isometric tension was recorded with a Grass transducer (Grass FT03) attached to a BIOPAC MP150 System. Preparations were allowed to equilibrate for 1 h, then contracted submaximally with noradrenaline (NA, 1 μM) and, when the contraction was stable, acetylcholine (ACh, 10 μM) was added. A relaxant response to ACh indicated the presence of a functional endothelium. When a stable precontraction was reached, a cumulative concentration-response curve to either of the vasorelaxant agents was obtained in the presence of a functional endothelium. Time intervals between different concentrations were based on the time needed to reach a full response. Moreover, the effect of the soluble guanylyl cyclase inhibitor ODQ (1-H-(1,2,4)-oxadiazol(4,3-a)quinoxalin-1-one) on the dilator responses elicited by the compounds was examined preincubating the aortic rings with ODQ (10 μM) for 20 min. Responses to vasorelaxing agents were measured from the plateau of NA contraction. The IC50 (concentration giving 50% reversal of NA contraction) was interpolated from the plots of relaxant-response vs log molar concentration of tested compound.
IC50 is the concentration which inhibits 50% of the response.

[3] = target: T1, ACE (Mus musculus, UniProt P09470); assay: Plasma ACE activity in CD1 mouse after i.v. dosing (FAPGG spectrophotometric method); assay type: in vivo; conditions: % vs basal condition
T1 construct: The plasma was stored at −20° C. until the ACE activity measurements; from tissue; host or cells: plasma of CD1 mice (heparinized blood from the vena cava)
T1 sequence (P09470 35-1237 limits assumed): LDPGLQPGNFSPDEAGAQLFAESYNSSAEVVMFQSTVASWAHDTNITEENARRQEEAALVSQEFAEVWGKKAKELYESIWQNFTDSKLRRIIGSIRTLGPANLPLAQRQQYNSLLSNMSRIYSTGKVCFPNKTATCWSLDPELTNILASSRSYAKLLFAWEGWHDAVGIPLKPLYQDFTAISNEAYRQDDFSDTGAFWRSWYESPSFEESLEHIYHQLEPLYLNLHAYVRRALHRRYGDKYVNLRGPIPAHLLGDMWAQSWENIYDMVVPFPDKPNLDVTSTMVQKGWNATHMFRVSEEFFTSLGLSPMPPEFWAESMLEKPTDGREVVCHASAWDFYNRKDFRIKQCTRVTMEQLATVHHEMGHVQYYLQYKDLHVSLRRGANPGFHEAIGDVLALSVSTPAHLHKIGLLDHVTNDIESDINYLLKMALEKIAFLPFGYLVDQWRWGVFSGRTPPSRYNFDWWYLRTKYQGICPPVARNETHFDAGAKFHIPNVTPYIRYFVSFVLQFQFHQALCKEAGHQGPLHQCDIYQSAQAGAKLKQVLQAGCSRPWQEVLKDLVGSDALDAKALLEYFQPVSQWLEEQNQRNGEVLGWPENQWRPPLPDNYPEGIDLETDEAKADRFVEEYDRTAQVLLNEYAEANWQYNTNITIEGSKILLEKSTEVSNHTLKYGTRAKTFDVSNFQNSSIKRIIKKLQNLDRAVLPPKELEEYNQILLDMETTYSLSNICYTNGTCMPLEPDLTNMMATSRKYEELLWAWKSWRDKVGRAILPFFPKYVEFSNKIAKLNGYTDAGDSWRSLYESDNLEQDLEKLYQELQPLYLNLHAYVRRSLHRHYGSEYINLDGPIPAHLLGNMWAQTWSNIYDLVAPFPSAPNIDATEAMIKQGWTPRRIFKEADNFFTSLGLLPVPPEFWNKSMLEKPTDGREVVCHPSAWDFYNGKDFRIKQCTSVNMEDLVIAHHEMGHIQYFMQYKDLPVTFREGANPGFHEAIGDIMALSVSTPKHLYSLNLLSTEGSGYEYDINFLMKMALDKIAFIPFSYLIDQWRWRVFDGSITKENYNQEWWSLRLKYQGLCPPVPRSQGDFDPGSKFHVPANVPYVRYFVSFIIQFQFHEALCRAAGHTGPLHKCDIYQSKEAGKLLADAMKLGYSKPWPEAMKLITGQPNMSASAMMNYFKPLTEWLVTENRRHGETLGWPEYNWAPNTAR
Procedure: CD1 mouse were treated i.v. with a single dose of 3 mg/Kg of enalapril and with a equimolar doses of enalapril nitroderivatives (compound of Ex. 3; 3.6 mg/Kg) and NO-ENA (3.92 mg/Kg). […] Heparinized blood samples were centrifuged at 1000 g for 20 min at 4° C. The plasma was stored at −20° C. until the ACE activity measurements. The ACE activity was determined by a spectrophotometric method (Sigma) based on the enzymatic reaction catalysed by ACE, where the FAPGG was hydrolysed to FAP. FAPGG hydrolysis produced a decrease in the absorbance at 340 nm, a marker of ACE activity in the sample.
The results, reported in Table 3, are expressed as % of ACE activity vs basal condition.

[4] = tested on: L-NAME-induced hypertension in rats; assay: L-NAME-induced hypertension in rats; assay type: in vivo, rat; conditions: for Systolic blood pressure (mmHg): 2 hours after administration, equimolar doses, basal 140
Procedure: Male Wistar rats weighing 225–250 g were used. The rats were divided into two groups. Under halothane anesthesia, radiotelemetry probes were inserted into descending aorta to measure systolic blood pressure (SBP). Baseline blood pressure was recovered (103 mmHg). Both groups were then provided with drinking water supplemented with L-NAME (400 mg/L) for 7 days to induce hypertension. After this treatment all the animals have a SBP of about 140 mmHg. The rats were then treated orally each day with enalapril or an equimolar dose of enalapril-nitroderivative (compound Ex. 3). Blood pressure recordings were made 2 hours after drug administration. The study was continued over three days period of drug administration.

[5] = tested on: rats with renal mass reduction (RMR); assay: Proteinuria and renal disease progression in rats with renal mass reduction (RMR); assay type: in vivo, rat; conditions: for effect on proteinuria (in words): repeated oral treatment, at 3 months
Procedure: Sprague-Dawley rats underwent right nephrectomy and ligation of two or tree branches of the main renal artery according to Olson et al. (1982). […] A group of sham operated rats was also included (Sham). Urinary protein excretion measurements were performed before the treatment and every month thereafter. Twenty-four hour urine samples were collected using metabolic cages and proteinuria was determined by the modified Coomassie Blu G dye-binding assay for the proteins with bovine serum albumin as standard.

[6] = tested on: SHR rats; assay: Hypotensive properties in SHR rats; assay type: in vivo, rat; conditions: i.v. bolus injection of equimolar doses, conscious SHR rats
Procedure: After at least 5 days after surgical catheterization of the arterial and venous femoral, conscious old (>9 months) male SHR rats were injected iv bolus with Enalapril, compound of Ex. 3 (equimolar doses) and vehicle (saline) (0.0335 mL/100 g body weight). Blood pressure and heart rate were recorded before (control period 1 h) and after IV bolus administration for up to 4 h.

[7] = 15 min after single i.v. dose equimolar to 3 mg/Kg enalapril
[8] = 30 min after single i.v. dose equimolar to 3 mg/Kg enalapril
[9] = 1 h after single i.v. dose equimolar to 3 mg/Kg enalapril
[10] = 3 hs after single i.v. dose equimolar to 3 mg/Kg enalapril
[11] = 6 hs after single i.v. dose equimolar to 3 mg/Kg enalapril
[12] = 24 hs after single i.v. dose equimolar to 3 mg/Kg enalapril
[13] = 3rd month of daily oral treatment, Compound of Ex. 3 50 mg/kg, enalapril 7.5 mg/kg
[14] = 21 days after renal ablation, before the treatment
[15] = Basal (before renal ablation and treatment)

Row | IC50 [2] [µM] | ACE Activity (% of activity) [3, 7] [%] | ACE Activity (% of activity) [3, 8] [%] | ACE Activity (% of activity) [3, 9] [%] | ACE Activity (% of activity) [3, 10] [%] | ACE Activity (% of activity) [3, 11] [%] | ACE Activity (% of activity) [3, 12] [%] | SMILES | NO-release rate compared with NO-ENA (in words) [1] | Systolic blood pressure (mmHg) ([4]; 1st day of oral treatment) | Systolic blood pressure (mmHg) ([4]; 2nd day of oral treatment) | Systolic blood pressure (mmHg) ([4]; 3rd day of oral treatment) | effects on L-NAME-induced hypertension compared with enalapril (in words) ([4]; oral, equimolar dose) | Proteinuria (mg/day) ± sem [5, 13] [mg/day] | Proteinuria (mg/day) ± sem [5, 14] [mg/day] | Proteinuria (mg/day) ± sem [5, 15] [mg/day] | effect on proteinuria (in words) [5] | decrease in blood pressure compared with enalapril (in words) [6] | relaxation of NA-contracted aortic rings (in words) ([2]; cumulative concentration-response curve)
1 | 30.9 ± 8.4 | 2.9 | 3.7 | 4.1 | 11.1 | 49.2 | 83.55 | CCOC(=O)[C@H](CCc1ccccc1)N[C@@H](C)C(=O)N1CCC[C@H]1C(=O)OCCCO[N+](=O)[O-].O=C(O)/C=C\C(=O)O [Compound of Ex. 3, N-[(1S)-1-(Ethoxycarbonyl)-3-phenylpropyl]-L-alanyl-L-proline 3-nitrooxypropyl ester hydrogen maleate] | much slower than the NO-release of NO-ENA | 120 | 117 | 115 | superior to those of enalapril | 163.9 | 76.5 ± 20.3 | 17.5 ± 1.3 | reduced proteinuria at 3 months | higher decrease in blood pressure than enalapril | 
2 | > 100 | 4.8 | 5.1 | 7.3 | 19.6 | 50.8 | 100 | CCOC(=O)[C@H](CCc1ccccc1)N[C@@H](C)C(=O)N1CCC[C@H]1C(=O)O [Enalapril] |  | 128 | 125 | 120 |  | 290.5 ± 43.2 | 72.4 ± 18.3 | 15.7 ± 1.2 | only a marginal effect |  | did not produce relaxation at any of the concentration tested
3 | 21.9 ± 6.9 |  |  |  |  |  |  | C[C@H](N[C@@H](CCc1ccccc1)C(=O)OCCCO[N+](=O)[O-])C(=O)N1CCC[C@H]1C(=O)O [Compound of Ex. 1, N-[(1S)-1-(3-nitrooxypropoxycarbonyl)-3-phenylpropyl]-L-alanyl-L-proline hydrochloride] |  |  |  |  |  |  |  |  |  |  | 
4 |  | 5.4 | 4.8 | 9.3 | 23.6 | 55.2 | 90.1 | CCOC(=O)[C@H](CCc1ccccc1)N[C@@H](C)C(=O)N1CCC[C@H]1C(=O)Oc1cccc(CO[N+](=O)[O-])c1.O=C(O)/C=C\C(=O)O [NO-ENA, enalapril 3-(nitrooxymethyl)phenyl ester maleate] |  |  |  |  |  |  |  |  |  |  | 
